From US20220241203A1, “METHOD FOR PRODUCTION OF LIPOSOMES” (UNIVERSIDADE DO MINHO, priority 2019, published 2022)

Assay: Encapsulation efficiency of the agent in liposomes (free agent removed by gel filtration)
Type: physicochemical
Procedure: In an embodiment, liposomes composed of DOPE/Cholesterol/DSPE-MPEG (54:36:10, molar ratio) were prepared using the ethanolic injection method. Briefly, lipids (DOPE, cholesterol and DSPE-MPEG) were dissolved in ethanol (5% in the classic ethanol injection method; 50% in the new proposed pre-concentration method, relative to the initial 20% aqueous phase) at 60° C.
The solution was injected under stirring to an aqueous solution (phosphate buffered saline, PBS). This process is done at 70° C., remaining during the necessary time to evaporate all the ethanol volume.
In the classic ethanolic injection method liposomes are extruded to reduce their size. In the pre-concentration method, after ethanol evaporation or tangential flow filtration, liposomal dispersion is diluted five times in PBS (remaining 80% of volume is added). The free therapeutic or imaging agent that was not incorporated into liposomes was removed from the samples after passage through a gel filtration chromatography column (GE Healthcare) with 5 kDa cut-off (PD-10 Desalting Columns containing 8.3 mL of Sephadex G-25 Medium). Hydrophilic therapeutic or imaging agents (e.g. methotrexate and doxorubicin) are present in this aqueous phase in the classic ethanol injection method and in the new proposed pre-concentration method. […]

Structure (SMILES): CN(Cc1cnc2nc(N)nc(N)c2n1)c1ccc(C(=O)N[C@@H](CCC(=O)O)C(=O)O)cc1 [methotrexate]
- amount of the agent used that was encapsulated (before optimization of the production method): 3-5%
- encapsulation efficiencies (pre-concentration method, 1:1 ethanol:aqueous phase, 2 steps): ~40%
